Experimental data: patent US8093060B2, “Multisite phosphorylated peptide (protein) recognizing compound and detection method, imaging method, alzheimer's disease diagnosing method and reagent kit using the same” (Canon Kabushiki Kaisha, priority 2008, dated 2012)

Experiments:
Assay type in all cases: binding
[1] = target: T1, phosphorylated tau aggregate (p-Tau) (Homo sapiens, UniProt P10636); experiment: Fluorescence staining of phosphorylated tau aggregate prepared in vitro
T1 construct: made in house; host or cells: Escherichia coli
T1 sequence (P10636 1-441 isoform P10636-8): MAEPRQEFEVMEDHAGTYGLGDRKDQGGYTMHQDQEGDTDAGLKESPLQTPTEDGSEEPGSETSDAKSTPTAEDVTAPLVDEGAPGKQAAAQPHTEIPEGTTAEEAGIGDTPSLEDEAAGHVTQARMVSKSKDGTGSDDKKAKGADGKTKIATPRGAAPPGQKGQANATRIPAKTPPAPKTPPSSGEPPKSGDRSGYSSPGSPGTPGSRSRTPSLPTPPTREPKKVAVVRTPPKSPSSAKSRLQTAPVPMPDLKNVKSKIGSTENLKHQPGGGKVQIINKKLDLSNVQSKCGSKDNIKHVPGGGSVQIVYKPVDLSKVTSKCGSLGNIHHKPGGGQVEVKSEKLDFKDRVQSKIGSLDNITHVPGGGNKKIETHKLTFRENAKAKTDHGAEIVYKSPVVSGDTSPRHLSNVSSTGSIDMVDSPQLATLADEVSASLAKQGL
Procedure: (§1) Tau proteins (8 μM) expressed by Escherichia coli and heparin (1.6 μM) were incubated at 37° C. for 20 days to prepare a tau aggregate. A phosphorylated tau aggregate was similarly prepared using tau proteins phosphorylated with GSK-3β in vitro. The results of Pro-Q diamond staining after performing SDS-PAGE confirmed that the in-vitro phosphorylation was performed with a phosphorylation degree of 6 mol P/mol Tau.
(§2) 10 μM BODIPY-Zn(Dpa) or 10 μM thioflavine T (may be referred to as ThT) were added to the prepared tau aggregate or phosphorylated tau aggregate. After the addition, the mixture was washed twice with 0.5 mM Zn(NO3)2, and a suspension (0.5 μL) of the stained phosphorylated tau aggregate was air-dried on a cover glass and observed under a confocal laser scanning microscope (OLYMPUS FV-1000, Obj. lens 100×).

[2] = target: T2, nonphosphorylated Tau aggregate (n-Tau) (Homo sapiens, UniProt P10636); experiment: Fluorescence staining of nonphosphorylated tau aggregate prepared in vitro; details: 10 μM dye
T2 construct: made in house; host or cells: Escherichia coli
T2 sequence (P10636 1-441 isoform P10636-8): as above
Procedure: as §1, §2

[3] = Fluorescence titration of compound 1 with phenyl phosphate
Procedure: (§3) The peptide recognizing abilities of compounds 1 and 2 were evaluated by measuring fluorescence spectra. Measurement was performed under conditions of [compound 1 or 2=10 μM, an optical path length of 1 cm, pH 7.2, 50 mM HEPES buffer and 25° C. The excitation wavelength was λex=323 nm, Ex/Em=15 nm/10 nm, except λex=323 nm, Ex/Em=5 nm/10 nm for only Tau210-2202P, for compound 1, and λex=305 nm, Ex/Em=10 nm/12 nm for compound 2. […] When the peptide was excessively added, this change reached saturation. The association constants calculated from the fluorescence changes were in the order of approx. 10^5 M^−1. […] When the fluorescence spectra of compounds 1 and 2 themselves were compared, compound 2 emitted much weaker fluorescence on the short wavelength side and stronger fluorescence on the long wavelength side than compound 1 (FIG. 8B) ([compound 1 or 2=10 μM, λex=305 nm, Ex/Em=10 nm/12 nm, 50 mM HEPES buffer, 1 cm cell, 25° C.).

[4] = target: T3, Tau204-2163P (Homo sapiens, UniProt P10636); experiment: ITC measurement of affinity, Tau204-2163P; details: compound 1 50 μM, peptide 1 mM, 25° C., pH 7.2, 50 mM HEPES
T3 construct: made in house; host or cells: chemical solid-phase synthesis
Procedure: (§4) To determine whether these fluorescence changes are associated with binding, affinity was examined by ITC measurement using, in particular, three peptides of Tau210-2202P, Tau204-2163P and Tau204-2162P(i, i+6). ITC measurement was performed under the following conditions: Tau210-2202P, [compound 1]=100 μM and [peptide]=2 mM; Tau204-2163P, [compound 1]=50 μM and [peptide]=1 mM; Tau204-2162P(i, i+6), [compound 1]=100 μM and [peptide]=3.24 mM; the number of titrations, 24; measurement temperature, 25° C.; pH 7.2; and 50 mM HEPES buffer. FIG. 11 illustrates caloric changes when Tau210-2202P was added to compound 1. FIG. 12 illustrates various thermodynamic parameters obtained from the caloric changes in the three different peptides. The caloric changes associated with the dropping of the peptide was an entropy-driven endothermic process (ΔS>0, ΔH>0). This change can be attributed to dehydration of water molecules hydrated to the compound molecules and the phosphorylated peptides along with the binding. The association constants obtained in Tau210-2202P and Tau204-2163P (K=3.33×10^5 M^−1 and K=2.88×10^5 M^−1, respectively) were similar to the values calculated from the fluorescence changes. […] On the other hand, N=0.51 was obtained in Tau204-2162P(i, i+6), and it appears that two compound molecules individually interact with two phosphate groups on the peptide.

[5] = system: peptides with two phosphate groups positioned with a distance of (i, i+2); experiment: Fluorescence titration of compound 1 with (i, i+2) diphosphorylated tau peptides
Procedure: as §3

[6] = target: T4, Tau210-2202P (Homo sapiens, UniProt P10636); experiment: ITC measurement of affinity, Tau210-2202P; details: compound 1 100 μM, peptide 2 mM, 25° C., pH 7.2, 50 mM HEPES
T4 construct: made in house; host or cells: chemical solid-phase synthesis
Procedure: as §4

[7] = target: T5, Tau204-2162P(i, i+6) (Homo sapiens, UniProt P10636); experiment: ITC measurement of affinity, Tau204-2162P(i, i+6); details: compound 1 100 μM, peptide 3.24 mM, 25° C., pH 7.2
T5 construct: made in house; host or cells: chemical solid-phase synthesis
Procedure: as §4

[8] = target: T6, Tau204-2162P (i, i+4) (Homo sapiens, UniProt P10636); experiment: Fluorescence titration of compound 1 with Tau204-2162P (i, i+4)
T6 construct: made in house; host or cells: chemical solid-phase synthesis
Procedure: as §3

[9] = target: T5, Tau204-2162P(i, i+6); experiment: Fluorescence titration of compound 1 with Tau204-2162P (i, i+6)
Procedure: as §3

[10] = target: T7, peptides with two phosphate groups with a distance of (i, i+4) or (i, i+6) (Homo sapiens, UniProt P10636); experiment: Fluorescence titration of compound 1 with (i, i+4) or (i, i+6) diphosphorylated tau peptides
T7 construct: made in house; host or cells: chemical solid-phase synthesis
Procedure: as §3

[11] = target: T3, Tau204-2163P; experiment: Fluorescence titration of compound 1 with Tau204-2163P
Procedure: as §3

[12] = target: T4, Tau210-2202P; experiment: Fluorescence spectra titration with Tau210-2202P added dropwise; details: compound 10 μM, pH 7.2, 50 mM HEPES buffer, 25° C.
Procedure: as §3

| Compound | staining of aggregate ([1]; p-Tau in the presence of pyrophosphoric acid (PPi)) | staining of aggregate ([1]; p-Tau, 10 μM dye) | staining of aggregate [2] | fluorescence change [3] | association constant K (ITC) [4] [M⁻¹] | binding constants to the peptides calculated from the fluorescence changes ([5]; (i, i+2) peptides) | fluorescence change on dropwise addition of peptide ([5]; (i, i+2) peptides, compound 1 10 μM) | Ka ([5]; (i, i+2) phosphate groups on tau sequence, summary) | association constant K (ITC) [6] [M⁻¹] | stoichiometry N (ITC) [7] | fluorescence change [8] | fluorescence change [9] | fluorescence change on dropwise addition of peptide ([10]; (i, i+4) or (i, i+6) peptides) | binding to two phosphate groups ([10]; positions (i, i+4) or (i, i+6), summary) | fluorescence change [11] | association constants calculated from the fluorescence changes [12] | fluorescence change on dropwise addition of Tau210-2202P [12] |
| --- | --- | --- | --- | --- | --- | --- | --- | --- | --- | --- | --- | --- | --- | --- | --- | --- | --- |
| Cc1ccc2c(c1)sc(-c1ccc(N(C)C)cc1)[n+]2C.[Cl-] [thioflavine T, reference compound] | stained the aggregate | fluorescence of ThT and that of BODIPY-Zn(Dpa) overlapped | is observed |  |  |  |  |  |  |  |  |  |  |  |  |  |  |
| CN(Cc1ccccn1)Cc1cc(/C=C/c2ccnc(CN(C)Cc3ccccn3)c2)ccn1.O=[N+]([O-])[O-].O=[N+]([O-])[O-].O=[N+]([O-])[O-].O=[N+]([O-])[O-].[Zn+2].[Zn+2] [compound 1] |  |  |  | no marked fluorescence change | 288000 | approx. 10^5 | dual wavelength fluorescence changes | ~10^5 M^−1 | 333000 | 0.51 | no marked fluorescence change occurred | no marked fluorescence change occurred | did not show marked fluorescence changes | did not bind | dual wavelength fluorescence changes occurred | approx. 10^5 M^−1 | dual wavelength fluorescence changes |
